# Measurements taken from ChEMBL document CHEMBL1833945, “Synthesis and anticonvulsant activity of new N-Mannich bases derived from 5-cyclopropyl-5-phenyl- and 5-cyclopropyl-5-(4-chlorophenyl)-imidazolidine-2,4-diones” (Bioorg Med Chem, 2011).
# Activity calls are given as the source filed them. No cut-off for these calls is given here.
# System: Mus musculus
# Test: Neurotoxicity in ip dosed CF1 albino mouse assessed as minimum dose required to cause impair in motor coordination after 4 hrs by rotarod test
# Type: toxicity, organism-based
# Settings: in vivo
row,SMILES,MTC
1,COCCN1CCN(CN2C(=O)NC(c3ccccc3)(C3CC3)C2=O)CC1 (stereo unspecified),30 mg/kg

# System: not listed separately
# Test: Lipophilicity, log P of compound
# Type: physicochemical
# Settings: octanol/water
row,logP,SMILES
1,2.17,O=C(c1ccccc1)N1CCN(CN2C(=O)NC(c3ccccc3)(C3CC3)C2=O)CC1 (stereo unspecified)
2,2,O=C1NC(c2ccc(Cl)cc2)(C2CC2)C(=O)N1CN1CCOCC1 (stereo unspecified)
3,3.71,O=C1NC(c2ccc(Cl)cc2)(C2CC2)C(=O)N1CN1CCc2ccccc2C1 (stereo unspecified)
4,1.46,COCCN1CCN(CN2C(=O)NC(c3ccccc3)(C3CC3)C2=O)CC1 (stereo unspecified)

# System: Mus musculus
# Test: Anticonvulsant activity in ip dosed CF1 albino mouse assessed as protection against maximal electroshock-induced seizures after 0.5 hrs
# Type: functional
# Settings: read-out: MED
row,SMILES,minimal effective dose
1,O=C(c1ccccc1)N1CCN(CN2C(=O)NC(c3ccccc3)(C3CC3)C2=O)CC1 (stereo unspecified),100 mg/kg
2,O=C1NC(c2ccc(Cl)cc2)(C2CC2)C(=O)N1CN1CCOCC1 (stereo unspecified),100 mg/kg
3,COCCN1CCN(CN2C(=O)NC(c3ccccc3)(C3CC3)C2=O)CC1 (stereo unspecified),100 mg/kg

# System: Mus musculus
# Test: Anticonvulsant activity in ip dosed CF1 albino mouse assessed as protection against subcutaneous pentylenetetrazole-induced seizures after 4 hrs
# Type: functional
# Settings: read-out: MED
row,SMILES,minimal effective dose
1,O=C1NC(c2ccc(Cl)cc2)(C2CC2)C(=O)N1CN1CCOCC1 (stereo unspecified),300 mg/kg

# System: Mus musculus
# Test: Anticonvulsant activity in ip dosed CF1 albino mouse assessed as protection against maximal electroshock-induced seizures after 4 hrs
# Type: functional
# Settings: read-out: MED
row,SMILES,minimal effective dose
1,O=C(c1ccccc1)N1CCN(CN2C(=O)NC(c3ccccc3)(C3CC3)C2=O)CC1 (stereo unspecified),100 mg/kg
2,O=C1NC(c2ccc(Cl)cc2)(C2CC2)C(=O)N1CN1CCOCC1 (stereo unspecified),100 mg/kg
3,O=C1NC(c2ccc(Cl)cc2)(C2CC2)C(=O)N1CN1CCc2ccccc2C1 (stereo unspecified),300 mg/kg
4,COCCN1CCN(CN2C(=O)NC(c3ccccc3)(C3CC3)C2=O)CC1 (stereo unspecified),100 mg/kg

# System: Mus musculus
# Test: Neurotoxicity in CF1 albino mouse assessed as impair in motor coordination at 300 mg/kg, ip after 4 hrs by rotarod test
# Type: toxicity, organism-based
# Set-up: dose 300 mg/kg, route intraperitoneal
# Settings: in vivo
row,SMILES,Activity
1,O=C(c1ccccc1)N1CCN(CN2C(=O)NC(c3ccccc3)(C3CC3)C2=O)CC1 (stereo unspecified),Non-toxic
2,O=C1NC(c2ccc(Cl)cc2)(C2CC2)C(=O)N1CN1CCc2ccccc2C1 (stereo unspecified),Non-toxic

# System: Mus musculus
# Test: Neurotoxicity in ip dosed CF1 albino mouse assessed as minimum dose required to cause impair in motor coordination after 0.5 hrs by rotarod test
# Type: toxicity, organism-based
# Settings: in vivo
row,SMILES,MTC
1,COCCN1CCN(CN2C(=O)NC(c3ccccc3)(C3CC3)C2=O)CC1 (stereo unspecified),30 mg/kg

# System: Mus musculus
# Test: Neurotoxicity in CF1 albino mouse assessed as loss of rotard grasping at 300 mg/kg, ip after 0.5 hrs by rotarod test
# Type: toxicity, organism-based
# Set-up: dose 300 mg/kg, route intraperitoneal
# Settings: in vivo
row,SMILES,Activity
1,O=C1NC(c2ccc(Cl)cc2)(C2CC2)C(=O)N1CN1CCOCC1 (stereo unspecified),Toxic

# System: Rattus norvegicus
# Test: Neurotoxicity in Sprague-Dawley albino rat assessed as motor impairment at 30 mg/kg, po after 1 hrs by rotarod test
# Type: toxicity, organism-based
# Set-up: dose 30 mg/kg, route oral
# Settings: in vivo
row,SMILES,Activity
1,O=C(c1ccccc1)N1CCN(CN2C(=O)NC(c3ccccc3)(C3CC3)C2=O)CC1 (stereo unspecified),Non-toxic

# System: Mus musculus
# Test: Toxicity in subcutaneous pentylenetetrazole-induced CF1 albino mouse assessed as myoclonic jerks at 300 mg/kg, ip after 4 hrs
# Type: organism-based
# Set-up: dose 300 mg/kg
# Settings: in vivo, sc
row,SMILES,Activity
1,O=C(c1ccccc1)N1CCN(CN2C(=O)NC(c3ccccc3)(C3CC3)C2=O)CC1 (stereo unspecified),Toxic

# System: Mus musculus
# Test: Anticonvulsant activity in CF1 albino mouse assessed as protection against maximal electroshock-induced seizures at 300 mg/kg, ip after 0.5 hrs
# Type: functional, organism-based
# Set-up: dose 300 mg/kg
# Settings: not given
row,SMILES,Activity
1,O=C1NC(c2ccc(Cl)cc2)(C2CC2)C(=O)N1CN1CCc2ccccc2C1 (stereo unspecified),inactive

# System: Rattus norvegicus
# Test: Neurotoxicity in Sprague-Dawley albino rat assessed as motor impairment at 30 mg/kg, po after 2 hrs by rotarod test
# Type: toxicity, organism-based
# Set-up: dose 30 mg/kg, route oral
# Settings: in vivo
row,SMILES,Activity
1,O=C(c1ccccc1)N1CCN(CN2C(=O)NC(c3ccccc3)(C3CC3)C2=O)CC1 (stereo unspecified),Non-toxic

# System: Rattus norvegicus
# Test: Neurotoxicity in Sprague-Dawley albino rat assessed as motor impairment at 50 mg/kg, po after 4 hrs by rotarod test
# Type: toxicity, organism-based
# Set-up: dose 50 mg/kg, route oral
# Settings: in vivo
row,SMILES,Activity
1,O=C1NC(c2ccc(Cl)cc2)(C2CC2)C(=O)N1CN1CCOCC1 (stereo unspecified),Non-toxic

# System: Mus musculus
# Test: Neurotoxicity in CF1 albino mouse assessed as impair in motor coordination at 300 mg/kg, ip after 0.5 hrs by rotarod test
# Type: toxicity, organism-based
# Set-up: dose 300 mg/kg, route intraperitoneal
# Settings: in vivo
row,SMILES,Activity
1,O=C(c1ccccc1)N1CCN(CN2C(=O)NC(c3ccccc3)(C3CC3)C2=O)CC1 (stereo unspecified),Non-toxic
2,O=C1NC(c2ccc(Cl)cc2)(C2CC2)C(=O)N1CN1CCc2ccccc2C1 (stereo unspecified),Non-toxic

# System: Rattus norvegicus
# Test: Neurotoxicity in Sprague-Dawley albino rat assessed as motor impairment at 50 mg/kg, po after 2 hrs by rotarod test
# Type: toxicity, organism-based
# Set-up: dose 50 mg/kg, route oral
# Settings: in vivo
row,SMILES,Activity
1,O=C1NC(c2ccc(Cl)cc2)(C2CC2)C(=O)N1CN1CCOCC1 (stereo unspecified),Non-toxic

# System: Mus musculus
# Test: Anticonvulsant activity in CF1 albino mouse assessed as protection against electrically-induced seizure at 100 mg/kg, ip after 0.25 hrs by 6Hz psychomotor seizure test
# Type: functional, organism-based
# Set-up: dose 100 mg/kg
# Settings: not given
row,SMILES,Activity
1,O=C1NC(c2ccc(Cl)cc2)(C2CC2)C(=O)N1CN1CCOCC1 (stereo unspecified),inactive

# System: Mus musculus
# Test: Anticonvulsant activity in CF1 albino mouse assessed as protection against subcutaneous pentylenetetrazole-induced seizures at 300 mg/kg, […] after 4 hrs
# Type: functional, organism-based
# Set-up: dose 300 mg/kg
# Settings: not given
row,SMILES,Activity
1,O=C1NC(c2ccc(Cl)cc2)(C2CC2)C(=O)N1CN1CCc2ccccc2C1 (stereo unspecified),inactive

# System: Mus musculus
# Test: Toxicity in subcutaneous pentylenetetrazole-induced CF1 albino mouse assessed as myoclonic jerks at 100 mg/kg, ip after 0.5 hrs
# Type: organism-based
# Set-up: dose 100 mg/kg
# Settings: in vivo, sc
row,SMILES,Activity
1,O=C(c1ccccc1)N1CCN(CN2C(=O)NC(c3ccccc3)(C3CC3)C2=O)CC1 (stereo unspecified),Toxic
2,COCCN1CCN(CN2C(=O)NC(c3ccccc3)(C3CC3)C2=O)CC1 (stereo unspecified),Toxic

# System: Mus musculus
# Test: Anticonvulsant activity in ip dosed CF1 albino mouse assessed as protection against subcutaneous pentylenetetrazole-induced seizures after 0.5 hrs
# Type: functional
# Settings: read-out: MED
row,SMILES,minimal effective dose
1,O=C1NC(c2ccc(Cl)cc2)(C2CC2)C(=O)N1CN1CCOCC1 (stereo unspecified),100 mg/kg

# System: Rattus norvegicus
# Test: Neurotoxicity in Sprague-Dawley albino rat assessed as motor impairment at 30 mg/kg, po after 0.25 hrs by rotarod test
# Type: toxicity, organism-based
# Set-up: dose 30 mg/kg, route oral
# Settings: in vivo
row,SMILES,Activity
1,O=C(c1ccccc1)N1CCN(CN2C(=O)NC(c3ccccc3)(C3CC3)C2=O)CC1 (stereo unspecified),Non-toxic

# System: Rattus norvegicus
# Test: Neurotoxicity in Sprague-Dawley albino rat assessed as motor impairment at 50 mg/kg, po after 0.5 hrs by rotarod test
# Type: toxicity, organism-based
# Set-up: dose 50 mg/kg, route oral
# Settings: in vivo
row,SMILES,Activity
1,O=C1NC(c2ccc(Cl)cc2)(C2CC2)C(=O)N1CN1CCOCC1 (stereo unspecified),Non-toxic

# System: Rattus norvegicus
# Test: Anticonvulsant activity in Sprague-Dawley albino rat assessed as protection against subcutaneous pentylenetetrazole-induced seizures at 50 mg/kg, po after 0.25 hrs
# Type: functional, organism-based
# Set-up: dose 50 mg/kg
# Settings: not given
row,SMILES,Activity
1,O=C1NC(c2ccc(Cl)cc2)(C2CC2)C(=O)N1CN1CCOCC1 (stereo unspecified),inactive

# System: Rattus norvegicus
# Test: Anticonvulsant activity in Sprague-Dawley albino rat assessed as protection against maximal electroshock-induced seizures at 30 mg/kg, po after 0.5 hrs
# Type: functional, organism-based
# Set-up: dose 30 mg/kg
# Settings: not given
row,SMILES,Activity
1,O=C(c1ccccc1)N1CCN(CN2C(=O)NC(c3ccccc3)(C3CC3)C2=O)CC1 (stereo unspecified),inactive

# System: Rattus norvegicus
# Test: Neurotoxicity in Sprague-Dawley albino rat assessed as motor impairment at 50 mg/kg, po after 1 hrs by rotarod test
# Type: toxicity, organism-based
# Set-up: dose 50 mg/kg, route oral
# Settings: in vivo
row,SMILES,Activity
1,O=C1NC(c2ccc(Cl)cc2)(C2CC2)C(=O)N1CN1CCOCC1 (stereo unspecified),Non-toxic

# System: Rattus norvegicus
# Test: Neurotoxicity in Sprague-Dawley albino rat assessed as motor impairment at 30 mg/kg, po after 4 hrs by rotarod test
# Type: toxicity, organism-based
# Set-up: dose 30 mg/kg, route oral
# Settings: in vivo
row,SMILES,Activity
1,O=C(c1ccccc1)N1CCN(CN2C(=O)NC(c3ccccc3)(C3CC3)C2=O)CC1 (stereo unspecified),Non-toxic

# System: Rattus norvegicus
# Test: Neurotoxicity in Sprague-Dawley albino rat assessed as motor impairment at 30 mg/kg, po after 0.5 hrs by rotarod test
# Type: toxicity, organism-based
# Set-up: dose 30 mg/kg, route oral
# Settings: in vivo
row,SMILES,Activity
1,O=C(c1ccccc1)N1CCN(CN2C(=O)NC(c3ccccc3)(C3CC3)C2=O)CC1 (stereo unspecified),Non-toxic

# System: Rattus norvegicus
# Test: Anticonvulsant activity in Sprague-Dawley albino rat assessed as protection against maximal electroshock-induced seizures at 30 mg/kg, po after 0.25 hrs
# Type: functional, organism-based
# Set-up: dose 30 mg/kg
# Settings: not given
row,SMILES,Activity
1,O=C(c1ccccc1)N1CCN(CN2C(=O)NC(c3ccccc3)(C3CC3)C2=O)CC1 (stereo unspecified),inactive

# System: Mus musculus
# Test: Neurotoxicity in CF1 albino mouse assessed as minimum dose causing loss of righting reflex at 300 mg/kg, ip after 4 hrs by rotarod test
# Type: toxicity, organism-based
# Set-up: dose 300 mg/kg, route intraperitoneal
# Settings: in vivo
row,SMILES,Activity
1,O=C1NC(c2ccc(Cl)cc2)(C2CC2)C(=O)N1CN1CCOCC1 (stereo unspecified),Toxic

# System: Mus musculus
# Test: Toxicity in subcutaneous pentylenetetrazole-induced CF1 albino mouse assessed as myoclonic jerks at 100 mg/kg, ip after 4 hrs
# Type: organism-based
# Set-up: dose 100 mg/kg
# Settings: in vivo, sc
row,SMILES,Activity
1,COCCN1CCN(CN2C(=O)NC(c3ccccc3)(C3CC3)C2=O)CC1 (stereo unspecified),Toxic

# System: Rattus norvegicus
# Test: Neurotoxicity in Sprague-Dawley albino rat assessed as motor impairment at 50 mg/kg, po after 0.25 hrs by rotarod test
# Type: toxicity, organism-based
# Set-up: dose 50 mg/kg, route oral
# Settings: in vivo
row,SMILES,Activity
1,O=C1NC(c2ccc(Cl)cc2)(C2CC2)C(=O)N1CN1CCOCC1 (stereo unspecified),Non-toxic
